From patent US4436751A, “Nitrobenzyl monates antibacterial compounds” (Beecham Group Limited, priority 1980, dated 1984)
≈ marks a conversion by molar mass, not a printed value. Where two headings read alike, the source gives them in different places.

How the values were obtained:
Format in all cases: cell-based
M. suipneumoniae JF 435 = experiment: Anti-mycoplasmal MIC in vitro, Friis broth agarose (Table 1); details: Mesomycoplasma hyopneumoniae, JF435, 144 h; M. suipneumoniae JF 435; in vitro, 6 days 37° C.; read-out: MIC
M. suipneumoniae Str. 11 = experiment: as above; details: Mesomycoplasma hyopneumoniae
[1] = test system: M. bovigenitalium ATOC 14173; experiment: as above; details: 144 h
M. suipneumoniae TAM 6N = experiment: as above; details: Mesomycoplasma hyopneumoniae, TAM6N, 144 h; M. suipneumoniae TAM 6N; in vitro, 6 days 37° C.; read-out: MIC
M. bovis RCTC 10131 = experiment: microbe, parasite or virus in culture; details: RCTC10131, 144 h
M. suipneumoniae OCD 1 = experiment: Anti-mycoplasmal MIC in vitro, Friis broth agarose (Table 1); details: Mesomycoplasma hyopneumoniae, OCD1, 144 h; M. suipneumoniae OCD 1; in vitro, 6 days 37° C.; read-out: MIC
M. suipneumoniae NB12 = experiment: as above; details: Mesomycoplasma hyopneumoniae
[2] = test system: M. suipneumoniae PW/C/210; experiment: as above; details: Mesomycoplasma hyopneumoniae, 144 h
M. dispar RCTC 10125 = experiment: as above; details: 144 h
E. Coli NCTC 10418 [3] = experiment: Veterinary bacteria MIC, Diagnostic Sensitivity Test Agar (Table 2); details: Escherichia coli, NCTC10418; E. Coli NCTC 10418; DST Agar, 10^4 organisms, 18 hours 37° C.; read-out: MIC
Experimental: (§1) The values were determined using a two fold serial dilutions in Diagnostic Sensitivity Test Agar with an inoculum of 10^4 organisms and incubation for 18 hours at 37° C.

[4] = test system: Erysipelothrix rhusiopathiae NCTC 8163; experiment: as above; details: NCTC8163; Erysipelothrix rhusiopathiae NCTC 8163; DST Agar, 10^4 organisms, 18 hours 37° C.; read-out: MIC
Experimental: as §1

Staph. aureus B4 = experiment: as above; details: Staphylococcus aureus; Staph. aureus B4; DST Agar, 10^4 organisms, 18 hours 37° C.; read-out: MIC
Experimental: as §1

Sarcina lutea 8340 = experiment: Human bacteria MIC, nutrient agar with chocolated horse blood (Table 3); details: Micrococcus luteus; Sarcina lutea 8340; nutrient agar 5% chocolated horse blood, 18 hours 37° C.; read-out: MIC
Experimental: (§2) The values were determined by serial dilutions in nutrient agar with 5% chocolated horse blood after incubations for 18 hours at 37° C.

Staph. aureus W2827 = experiment: as above; details: Staphylococcus aureus; Staph. aureus W2827; nutrient agar 5% chocolated horse blood, 18 hours 37° C.; read-out: MIC
Experimental: as §2

E. Coli NCTC 10418 [5] = experiment: as above; details: Escherichia coli, NCTC10418; E. coli NCTC 10418; nutrient agar 5% chocolated horse blood, 18 hours 37° C.; read-out: MIC
Experimental: as §2

[6] = test system: Strep. pyogenes R80/421-A; experiment: as above; details: Streptococcus pyogenes, R80/421A, 18 h
Experimental: as §2

K. aerogenes A = experiment: as above; details: Klebsiella aerogenes; K. aerogenes A; nutrient agar 5% chocolated horse blood, 18 hours 37° C.; read-out: MIC
Experimental: as §2

Staph. aureus Russell = experiment: as above; details: Staphylococcus aureus; Staph. aureus Russell; nutrient agar 5% chocolated horse blood, 18 hours 37° C.; read-out: MIC
Experimental: as §2

Bacillus subtilis 6633 = experiment: as above
Experimental: as §2

[7] = test system: Corynebacterium xerosis 9755; experiment: as above; details: Corynebacterium xerosis 9755; nutrient agar 5% chocolated horse blood, 18 hours 37° C.; read-out: MIC
Experimental: as §2

Strep. faecalis 1 = experiment: as above; details: Enterococcus faecalis; Strep. faecalis 1; nutrient agar 5% chocolated horse blood, 18 hours 37° C.; read-out: MIC
Experimental: as §2

[8] = test system: Ps. aeruginosa NCTC 10662; experiment: as above; details: Pseudomonas aeruginosa, NCTC10662; Ps. aeruginosa NCTC 10662; nutrient agar 5% chocolated horse blood, 18 hours 37° C.; read-out: MIC
Experimental: as §2

[9] = test system: Pasteurella multocida 1633; experiment: as above; details: Pasteurella multocida 1633; nutrient agar 5% chocolated horse blood, 18 hours 37° C.; read-out: MIC
Experimental: as §2

P. mirabilis 889 = experiment: as above; details: Proteus mirabilis; P. mirabilis 889; nutrient agar 5% chocolated horse blood, 18 hours 37° C.; read-out: MIC
Experimental: as §2

Staph. aureus Oxford = experiment: as above; details: Staphylococcus aureus; Staph. aureus Oxford; nutrient agar 5% chocolated horse blood, 18 hours 37° C.; read-out: MIC
Experimental: as §2

[10] = test system: Haemophilus influenzae Q1; experiment: as above
Experimental: as §2

[11] = test system: M. hyosynoviae ATOC 25591; experiment: Anti-mycoplasmal MIC in vitro, Friis broth agarose (Table 1); details: 144 h
[12] = test system: M. suipneumoniae ATCC 25095; experiment: as above; details: Mesomycoplasma hyopneumoniae, ATCC25095, 144 h

SMILES	MIC (M. suipneumoniae JF 435) [µg/mL]	MIC [1] [µg/mL]	MIC (M. suipneumoniae TAM 6N) [µg/mL]	MIC (M. bovis RCTC 10131) [µg/mL]	MIC (M. suipneumoniae OCD 1) [µg/mL]	MIC (M. dispar RCTC 10125) [µg/mL]	MIC (E. Coli NCTC 10418 [3]) [µg/mL]	MIC [4] [µg/mL]	MIC (Staph. aureus B4) [µg/mL]	MIC (Sarcina lutea 8340) [µg/mL]	MIC (Staph. aureus W2827) [µg/mL]	MIC (E. Coli NCTC 10418 [5]) [µg/mL]	MIC [6] [µg/mL]	MIC (K. aerogenes A) [µg/mL]	MIC (Staph. aureus Russell) [µg/mL]	MIC [7] [µg/mL]	MIC (Strep. faecalis 1) [µg/mL]	MIC [8] [µg/mL]	MIC [9] [µg/mL]	MIC (P. mirabilis 889) [µg/mL]	other results
C/C(=C\C(=O)OC(C)c1cccc([N+](=O)[O-])c1)CC1OCC(CC2OC2C(C)C(C)O)C(O)C1O (centres unmarked) [Example 3, 1-(m-nitrophenyl)ethyl monate A]	0.25 (≈ 0.507 µM)	0.05 (≈ 0.101 µM)	0.25 (≈ 0.507 µM)	0.025 (≈ 0.0507 µM)	0.25 (≈ 0.507 µM)	0.05 (≈ 0.101 µM)	> 80	80 (≈ 162 µM)	2.5 (≈ 5.07 µM)	> 100	5 (≈ 10.1 µM)	> 100	1 (≈ 2.03 µM)	> 100	2.5 (≈ 5.07 µM)	> 100	> 100	> 100	25 (≈ 50.7 µM)	> 100	MIC (M. suipneumoniae Str. 11; 144 h, M. suipneumoniae Str. 11, in vitro, 6 days 37° C., read-out: MIC): 0.1 µg/mL (≈ 0.203 µM); MIC (M. suipneumoniae NB12; 144 h, M. suipneumoniae NB12, in vitro, 6 days 37° C., read-out: MIC): 0.25 µg/mL (≈ 0.507 µM); MIC ([2]; M. suipneumoniae PW/C/210, in vitro, 6 days 37° C., read-out: MIC): 0.1 µg/mL (≈ 0.203 µM); MIC (Bacillus subtilis 6633; Bacillus subtilis, 6633, 18 h): 1 µg/mL (≈ 2.03 µM); MIC (Staph. aureus Oxford): 2.5 µg/mL (≈ 5.07 µM); MIC ([10]; Haemophilus influenzae, Q1, 18 h): 1 µg/mL (≈ 2.03 µM); MIC ([11]; M. hyosynoviae ATOC 25591, in vitro, 6 days 37° C., read-out: MIC): 0.25 µg/mL (≈ 0.507 µM); MIC ([12]; M. suipneumoniae ATCC 25095, in vitro, 6 days 37° C., read-out: MIC): 0.1 µg/mL (≈ 0.203 µM)
C/C(=C\C(=O)OCc1ccc([N+](=O)[O-])cc1)CC1OCC(CC2OC2C(C)C(C)O)C(O)C1O (centres unmarked) [Example 1, p-nitrobenzyl monate A]	0.1 (≈ 0.209 µM)	< 0.01	0.1 (≈ 0.209 µM)	< 0.01	0.1 (≈ 0.209 µM)	0.025 (≈ 0.0521 µM)	40 (≈ 83.4 µM)	10 (≈ 20.9 µM)	0.156 (≈ 0.325 µM)	> 100	0.5 (≈ 1.04 µM)	25 (≈ 52.1 µM)	0.25 (≈ 0.521 µM)	100 (≈ 209 µM)	0.5 (≈ 1.04 µM)	> 100	50 (≈ 104 µM)	> 100	0.5 (≈ 1.04 µM)	100 (≈ 209 µM)	MIC (M. suipneumoniae Str. 11; STR.11, 144 h): 0.05 µg/mL (≈ 0.104 µM); MIC (M. suipneumoniae NB12; NB12, 144 h): 0.05 µg/mL (≈ 0.104 µM); MIC [2]: 0.05 µg/mL (≈ 0.104 µM); MIC (Bacillus subtilis 6633; Bacillus subtilis 6633, nutrient agar 5% chocolated horse blood, 18 hours 37° C., read-out: MIC): 0.5 µg/mL (≈ 1.04 µM); MIC (Staph. aureus Oxford): 0.5 µg/mL (≈ 1.04 µM); MIC ([10]; Haemophilus influenzae Q1, nutrient agar 5% chocolated horse blood, 18 hours 37° C., read-out: MIC): 0.1 µg/mL (≈ 0.209 µM); MIC [11]: < 0.01 µg/mL; MIC [12]: 0.05 µg/mL (≈ 0.104 µM)
